Assay [1] deals with Human α2δ-1 subunit of Cav2.2 calcium channel (Homo sapiens, UniProt P54289). Nature of the assay: biochemical. It is filed as binding.
In another assay the target is Human μ-opioid receptor (Homo sapiens, UniProt P35372). Nature of the assay: biochemical. The assay is classed as binding.

Where two headings read alike, the source gives them in different places.

Human α2δ-1 subunit of Cav2.2 calcium channel, sequence (P54289 25-1103): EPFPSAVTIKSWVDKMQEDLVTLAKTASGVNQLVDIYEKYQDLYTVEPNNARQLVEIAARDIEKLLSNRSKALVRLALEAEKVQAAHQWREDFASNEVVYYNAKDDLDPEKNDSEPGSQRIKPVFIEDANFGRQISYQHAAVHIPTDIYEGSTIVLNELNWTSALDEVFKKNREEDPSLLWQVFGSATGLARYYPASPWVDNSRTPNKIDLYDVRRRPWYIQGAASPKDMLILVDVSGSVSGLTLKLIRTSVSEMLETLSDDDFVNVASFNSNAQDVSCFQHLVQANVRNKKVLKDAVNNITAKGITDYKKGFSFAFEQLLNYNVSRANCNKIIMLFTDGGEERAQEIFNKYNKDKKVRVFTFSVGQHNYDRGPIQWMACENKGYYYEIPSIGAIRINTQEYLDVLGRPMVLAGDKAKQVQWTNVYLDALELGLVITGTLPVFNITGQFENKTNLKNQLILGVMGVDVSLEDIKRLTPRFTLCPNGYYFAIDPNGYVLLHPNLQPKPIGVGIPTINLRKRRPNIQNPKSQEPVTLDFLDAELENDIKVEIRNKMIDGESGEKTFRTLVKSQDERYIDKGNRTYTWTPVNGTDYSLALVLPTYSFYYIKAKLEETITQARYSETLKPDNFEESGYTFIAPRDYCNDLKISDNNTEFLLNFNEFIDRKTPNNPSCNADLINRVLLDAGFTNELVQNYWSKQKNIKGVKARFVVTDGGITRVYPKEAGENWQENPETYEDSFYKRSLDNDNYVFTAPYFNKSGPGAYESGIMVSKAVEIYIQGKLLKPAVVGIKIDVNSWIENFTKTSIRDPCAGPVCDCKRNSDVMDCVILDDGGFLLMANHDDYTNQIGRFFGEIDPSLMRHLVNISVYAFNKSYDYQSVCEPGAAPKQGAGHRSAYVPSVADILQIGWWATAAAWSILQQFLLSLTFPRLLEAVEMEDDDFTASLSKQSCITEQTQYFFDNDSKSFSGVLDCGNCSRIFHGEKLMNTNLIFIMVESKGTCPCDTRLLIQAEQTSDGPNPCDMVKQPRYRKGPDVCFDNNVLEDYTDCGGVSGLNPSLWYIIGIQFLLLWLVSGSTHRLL
Human μ-opioid receptor, sequence (P35372 whole entry): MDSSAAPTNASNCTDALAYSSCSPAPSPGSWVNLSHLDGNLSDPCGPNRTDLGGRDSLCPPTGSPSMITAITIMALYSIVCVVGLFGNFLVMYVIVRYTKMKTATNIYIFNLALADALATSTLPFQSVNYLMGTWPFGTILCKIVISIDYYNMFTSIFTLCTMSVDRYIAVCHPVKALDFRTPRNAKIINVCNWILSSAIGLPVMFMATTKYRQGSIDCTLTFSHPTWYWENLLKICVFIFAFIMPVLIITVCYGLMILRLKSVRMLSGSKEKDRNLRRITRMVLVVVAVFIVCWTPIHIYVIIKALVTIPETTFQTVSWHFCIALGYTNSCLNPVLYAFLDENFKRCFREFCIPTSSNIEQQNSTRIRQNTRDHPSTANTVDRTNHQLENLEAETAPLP

As for `COCCn1c(C(CC2CC2)N2C[C@@H](C)N[C@@H](C)C2)nc2ccccc2c1=O` (stereo partly drawn) [Example 116, 2-(2-cyclopropyl-1-((3S,5R)-3,5-dimethylpiperazin-1-yl)ethyl)-3-(2-methoxyethyl)quinazolin-4(3H)-one], the values for the Ki (in assay [1]; on Human μ-opioid receptor (read-out: μ-binding)) were 500 to 5000 nM and greater than 500 nM, respectively.

Consider `CCCC(c1nc2ccccc2c(=O)n1CCOC)N1CCNCC1` (stereo not drawn) [Example 117, 3-(2-methoxyethyl)-2-(1-(piperazin-1-yl)butyl)quinazolin-4(3H)-one], for which the Ki in assay [1] is 500 to 5000 nM; on Human μ-opioid receptor (read-out: μ-binding), greater than 500 nM.

Turning to `CCCC(c1nc2ccccc2c(=O)n1Cc1ccco1)N1C[C@@H](C)N[C@@H](C)C1` (stereo partly drawn) [Example 118, 2-(1-((3S,5R)-3,5-dimethylpiperazin-1-yl)butyl)-3-(furan-2-ylmethyl)quinazolin-4(3H)-one], the Ki in assay [1] was less than 500 nM; at Human μ-opioid receptor it was greater than 500 nM.

With `CCCC(c1nc2ccc(C)cc2c(=O)n1CCOC)N1C[C@@H](C)N[C@@H](C)C1` (stereo partly drawn) [Example 119, 2-(1-((3S,5R)-3,5-dimethylpiperazin-1-yl)butyl)-3-(2-methoxyethyl)-6-methylquinazolin-4(3H)-one], the Ki is less than 500 nM in assay [1] and greater than 500 nM on Human μ-opioid receptor.

As for `CCCC(c1nc2ccc(OC)cc2c(=O)n1CCOC)N1C[C@@H](C)N[C@@H](C)C1` (stereo partly drawn) [Example 120, 2-(1-((3S,5R)-3,5-dimethylpiperazin-1-yl)butyl)-6-methoxy-3-(2-methoxyethyl)quinazolin-4(3H)-one], the Ki in assay [1] is less than 500 nM; at Human μ-opioid receptor it was greater than 500 nM.

Take `CCCC(c1nc2cnccc2c(=O)n1CCOC)N1C[C@@H](C)N[C@@H](C)C1` (stereo partly drawn) [Example 121, 2-(1-((3S,5R)-3,5-dimethylpiperazin-1-yl)butyl)-3-(2-methoxyethyl)pyrido[3,4-d]pyrimidin-4(3H)-one]: the Ki in assay [1] was less than 500 nM; at Human μ-opioid receptor, greater than 500 nM.

Regarding `CCCC(c1nc2ccc(Br)cc2c(=O)n1CCC(=O)OCC)N1C[C@@H](C)N[C@@H](C)C1` (stereo partly drawn) [Example 122, ethyl 3-(6-bromo-2-(1-((3S,5R)-3,5-dimethylpiperazin-1-yl)butyl)-4-oxoquinazolin-3(4H)-yl)propanoate], the Ki in assay [1] (read-out: α2δ-1 binding) was 500 to 5000 nM; at Human μ-opioid receptor (read-out: μ-binding) it was greater than 500 nM.

As for `CCC[C@H](c1nc2ccccc2c(=O)n1CCOC)N1C[C@@H](C)N[C@@H](C)C1` [Example 123, 2-((R)-1-((3S,5R)-3,5-Dimethylpiperazin-1-yl)butyl)-3-(2-methoxyethyl)quinazolin-4(3H)-one], the values for the Ki (in assay [1]; at Human μ-opioid receptor) were less than 500 nM and greater than 500 nM, respectively.

Take `CCC[C@@H](c1nc2ccccc2c(=O)n1CCOC)N1C[C@@H](C)N[C@@H](C)C1` [Example 124, 2-((S)-1-((3S,5R)-3,5-dimethylpiperazin-1-yl)butyl)-3-(2-methoxyethyl)quinazolin-4(3H)-one]: the figures for the Ki (in assay [1]; on Human μ-opioid receptor) were 500 to 5000 nM and greater than 500 nM, respectively.

Take `CCCC(c1nc2ccc(Br)cc2c(=O)n1CCC(=O)O)N1C[C@@H](C)N[C@@H](C)C1` (stereo partly drawn) [Example 125, 3-(6-Bromo-2-(1-((3S,5R)-3,5-dimethylpiperazin-1-yl)butyl)-4-oxoquinazolin-3(4H)-yl)propanoic acid]: the results for the Ki (in assay [1]; on Human μ-opioid receptor) were 500 to 5000 nM and 100 to 500 nM, respectively.

In the case of `CCCC(c1nc2ccc(Br)cc2c(=O)n1CC(=O)O)N1C[C@@H](C)N[C@@H](C)C1` (stereo partly drawn) [Example 126, 2-(6-bromo-2-(1-((3S,5R)-3,5-dimethylpiperazin-1-yl)butyl)-4-oxoquinazolin-3(4H)-yl)acetic acid], the values for the Ki (in assay [1] (read-out: α2δ-1 binding); at Human μ-opioid receptor (read-out: μ-binding)) were greater than 5000 nM and greater than 500 nM, respectively.

On to `CCCC(c1nc2ccccc2c(=O)n1CCNC)N1C[C@@H](C)N[C@@H](C)C1` (stereo partly drawn) [Example 127, 2-(1-((3S,5R)-3,5-Dimethylpiperazin-1-yl)butyl)-3-(2-(methylamino)ethyl)quinazolin-4(3H)-one], for which the results for the Ki (in assay [1]; at Human μ-opioid receptor (read-out: μ-binding)) were 500 to 5000 nM and greater than 500 nM, respectively.

For the compound `CCCC(c1nc2ccccc2c(=O)n1CCN(C)C)N1C[C@@H](C)N[C@@H](C)C1` (stereo partly drawn) [Example 128, 3-(2-(Dimethylamino)ethyl)-2-(1-((3S,5R)-3,5-dimethylpiperazin-1-yl)butyl)quinazolin-4(3H)-one], the Ki was 500 to 5000 nM in assay [1] (read-out: α2δ-1 binding) and greater than 500 nM at Human μ-opioid receptor (read-out: μ-binding).

Take `CCCC(c1nc2ccccc2c(=O)n1CCN(C)CCc1ccccc1)N1C[C@@H](C)N[C@@H](C)C1` (stereo partly drawn) [Example 129, 2-(1-((3S,5R)-3,5-dimethylpiperazin-1-yl)butyl)-3-(2-(methyl(phenethyl)amino)ethyl)quinazolin-4(3H)-one]: the Ki is 500 to 5000 nM in assay [1] (read-out: α2δ-1 binding) and greater than 500 nM at Human μ-opioid receptor (read-out: μ-binding).

On to `CCCC(c1nc2ccccc2c(=O)n1CCN(C)CCCc1ccccc1)N1C[C@@H](C)N[C@@H](C)C1` (stereo partly drawn) [Example 130, 2-(1-((3S,5R)-3,5-dimethylpiperazin-1-yl)butyl)-3-(2-(methyl(3-phenylpropyl)amino)ethyl)quinazolin-4(3H)-one], for which the Ki in assay [1] (read-out: α2δ-1 binding) is 500 to 5000 nM; on Human μ-opioid receptor (read-out: μ-binding) it was greater than 500 nM.

With `CCCC(c1nc2ccccc2c(=O)n1CCN(C)C)N1C[C@@H](C)N(C)[C@@H](C)C1` (stereo partly drawn) [Example 131, 3-(2-(Dimethylamino)ethyl)-2-(1-((3S,5R)-3,4,5-trimethylpiperazine-1-yl)butyl)quinazolin-4(3H)-one], the Ki in assay [1] (read-out: α2δ-1 binding) is greater than 5000 nM; at Human μ-opioid receptor (read-out: μ-binding), greater than 500 nM.

In the case of `CCCC(c1nc2ccc(-c3ccncc3)cc2c(=O)n1CC)N1C[C@@H](C)N[C@@H](C)C1` (stereo partly drawn) [Example 132, 2-(1-((3S,5R)-3,5-Dimethylpiperazin-1-yl)butyl)-3-ethyl-6-(pyridin-4-yl)quinazolin-4(3H)-one], the Ki was less than 500 nM in assay [1] and greater than 500 nM on Human μ-opioid receptor.

Take `CCCC(c1nc2cc(-c3ccncc3)ccc2c(=O)n1CC)N1C[C@@H](C)N[C@@H](C)C1` (stereo partly drawn) [Example 133, 2-(1-((3S,5R)-3,5-dimethylpiperazin-1-yl)butyl)-3-ethyl-7-(pyridin-4-yl)quinazolin-4(3H)-one]: the figures for the Ki (in assay [1]; on Human μ-opioid receptor) were less than 500 nM and greater than 500 nM, respectively.

Turning to `CCCC(c1nc2cc(-c3cccc(O)c3)ccc2c(=O)n1CC)N1C[C@@H](C)N[C@@H](C)C1` (stereo partly drawn) [Example 134, 2-(1-((3S,5R)-3,5-dimethylpiperazin-1-yl)butyl)-3-ethyl-7-(3-hydroxyphenyl)quinazolin-4(3H)-one], the Ki is less than 500 nM in assay [1] and greater than 500 nM on Human μ-opioid receptor.

Turning to `CCCC(c1nc2cc(-c3ccnc(OC)c3)ccc2c(=O)n1CC)N1C[C@@H](C)N[C@@H](C)C1` (stereo partly drawn) [Example 135, 2-(1-((3S,5R)-3,5-dimethylpiperazin-1-yl)butyl)-3-ethyl-7-(2-methoxypyridin-4-yl)quinazolin-4(3H)-one], the Ki was less than 500 nM in assay [1] and greater than 500 nM at Human μ-opioid receptor.

Turning to `CCCC(c1nc2cc(-c3ccnc(CNC)c3)ccc2c(=O)n1C)N1C[C@@H](C)N[C@@H](C)C1` (stereo partly drawn) [Example 136, 2-(1-((3S,5R)-3,5-dimethylpiperazin-1-yl)butyl)-3-methyl-7-(2-((methylamino)methyl)pyridin-4-yl)quinazolin-4(3H)-one], the Ki in assay [1] (read-out: α2δ-1 binding) was 500 to 5000 nM; on Human μ-opioid receptor (read-out: μ-binding), greater than 500 nM.

With `CCCC(c1nc2cc(N3CCCC3)ccc2c(=O)n1CC)N1C[C@@H](C)N[C@@H](C)C1` (stereo partly drawn) [Example 137, 2-(1-((3S,5R)-3,5-Dimethylpiperazin-1-yl)butyl)-3-ethyl-7-(pyrrolidin-1-yl)quinazolin-4(3H)-one], the Ki in assay [1] was less than 500 nM; at Human μ-opioid receptor, greater than 500 nM.

For the compound `CCCC(c1nc2ccc(N3CCCC3)cc2c(=O)n1CC)N1C[C@@H](C)N[C@@H](C)C1` (stereo partly drawn) [Example 138, 2-(1-((3S,5R)-3,5-dimethylpiperazin-1-yl)butyl)-3-ethyl-6-(pyrrolidin-1-yl)quinazolin-4(3H)-one], the Ki was less than 500 nM in assay [1] and greater than 500 nM at Human μ-opioid receptor.

Turning to `CCCC(c1nc2ccc(N3CCC(N(C)C)CC3)cc2c(=O)n1CC)N1C[C@@H](C)N[C@@H](C)C1` (stereo partly drawn) [Example 139, 6-(4-(dimethylamino)piperidin-1-yl)-2-(1-((3S,5R)-3,5-dimethylpiperazin-1-yl)butyl)-3-ethylquinazolin-4(3H)-one], the values for the Ki (in assay [1]; at Human μ-opioid receptor) were less than 500 nM and greater than 500 nM, respectively.

In the case of `CCCC(c1nc2ccc(N3CCC(NC)CC3)cc2c(=O)n1CC)N1C[C@@H](C)N[C@@H](C)C1` (stereo partly drawn) [Example 140, 2-(1-((3S,5R)-3,5-dimethylpiperazin-1-yl)butyl)-3-ethyl-6-(4-(methylamino)piperidin-1-yl)quinazolin-4(3H)-one], the Ki in assay [1] is less than 500 nM; at Human μ-opioid receptor, greater than 500 nM.

As to `CCCC(c1nc2ccc(N3CCC(N)CC3)cc2c(=O)n1CC)N1C[C@@H](C)N[C@@H](C)C1` (stereo partly drawn) [Example 141, 6-(4-aminopiperidin-1-yl)-2-(1-((3S,5R)-3,5-dimethylpiperazin-1-yl)butyl)-3-ethylquinazolin-4(3H)-one], the Ki in assay [1] was less than 500 nM; at Human μ-opioid receptor, greater than 500 nM.

As for `CCCC(c1nc2ccc(N(C)C3CCN(C)CC3)cc2c(=O)n1CC)N1C[C@@H](C)N[C@@H](C)C1` (stereo partly drawn) [Example 143, 2-(1-((3S,5R)-3,5-dimethylpiperazin-1-yl)butyl)-3-ethyl-6-(methyl(1-methylpiperidin-4-yl)amino)quinazolin-4(3H)-one], the Ki in assay [1] is less than 500 nM; at Human μ-opioid receptor (binding to μ-opioid receptor expressed as Ki, + also Ki>500 nM or inhibition between 1% and 50%, read-out: μ-binding) it was greater than 500 nM.

With `CCCC(c1nc2ccc(N(C)Cc3ccccc3)cc2c(=O)n1CC)N1C[C@@H](C)N[C@@H](C)C1` (stereo partly drawn) [Example 144, 6-(benzyl(methyl)amino)-2-(1-((3S,5R)-3,5-dimethylpiperazin-1-yl)butyl)-3-ethylquinazolin-4(3H)-one], the Ki in assay [1] is less than 500 nM; on Human μ-opioid receptor it was greater than 500 nM.

In the case of `CCCC(c1nc2ccc(NCCNC)cc2c(=O)n1CC)N1C[C@@H](C)N[C@@H](C)C1` (stereo partly drawn) [Example 145, 2-(1-((3S,5R)-3,5-dimethylpiperazin-1-yl)butyl)-3-ethyl-6-((2-(methylamino)ethyl)amino)quinazolin-4(3H)-one], the Ki in assay [1] is less than 500 nM; at Human μ-opioid receptor, greater than 500 nM.

With `CCCC(c1nc2ccc(N(C)CCNC)cc2c(=O)n1CC)N1C[C@@H](C)N[C@@H](C)C1` (stereo partly drawn) [Example 146, 2-(1-((3S,5R)-3,5-dimethylpiperazin-1-yl)butyl)-3-ethyl-6-(methyl(2-(methylamino)ethyl)amino)quinazolin-4(3H)-one], the Ki in assay [1] was less than 500 nM; on Human μ-opioid receptor it was greater than 500 nM.

These data come from patent US20220002314A1 (priority 2018, published 2022).
